Here are results for six molecules from patent US20210228509A1 (Nacuity Pharmaceuticals, Inc., priority 2020, published 2021).

pKi: −log10 of the molar value.

The test system of one data set is isolated rat lens. Kind of data set: Inhibition of oxidation of isolated rat lenses (H2O2 cataract model). The data set is classed as cell-based, Wistar rat. The following applies: 10 mM, 24 hour incubation, then 0.5 mM H2O2 24 hours; compared to control (FIG. 1). On the procedure: Protocol for inhibition of oxidation of isolated rat lenses. Three-week old Wistar rat eyes were enucleated and lenses micro-dissected in Dulbecco's modified eagle's medium (low glucose) (DMEM-F12). Lenses were handled using only custom-made glass loops to avoid changes in transparency and placed in 1 mL DMEM with 1% penicillin/streptomycin/neomycin. Lenses were placed in a culture incubator set at 37° C./5% CO2 for one hour. Then lenses were imaged under darkfield and brightfield (grid) to ensure they are still transparent before adding vehicle (H20), 10 mM NACA (solution), or 10 mM diNACA (suspension). Lenses were then imaged at a 6-hour time period to ensure transparency was maintained, then incubated for another 18 hours, then imaged again (total 24 hour incubation). Media was collected and fresh media was added to the wells. 0.5 mM H2O2 (warmed at 37 deg C) was added and left for a further 24-hour incubation. Lenses were imaged, media collected, lenses weighed and flash frozen in tared vials and submitted for further analysis

Another data set has as its system isolated porcine lenses. The data set is described as follows: Inhibition of oxidation of isolated porcine lenses (H2O2-induced cataract). The following applies: for inhibition of H2O2-induced cataract: 24 hours pre-incubation, then 600 μM H2O2 with glucose oxidase 6 hours (FIG. 2); for efficacy against H2O2-induced cataract relative to NAC: FIG. 2. The data set is classed as cell-based, pigs. On the procedure: Protocol for inhibition of oxidation of isolated porcine lenses. Fresh eyes from pigs were obtained from Sierra For Medical Science. Lenses were first incubated in medium 199 (Sigma-Aldrich, St. Louis, Mo., USA) and 1% pig serum in a 12-well plate for two hours. At the end of the incubation, lenses were imaged under darkfield microscopy and only clear, transparent lenses were used for further experimentation. Lenses were then pre-incubated with NAC, NACA or diNACA for 24 hours. After pretreatment, lenses were transferred to media containing 600 μM H2O2 which was supplemented with glucose oxidase (GO) for maintaining a constant H2O2 level during further incubation for 6 hours [Wang G M, Raghavachari N, Lou M F. Relationship of protein-glutathione mixed disulfide and thioltransferase in H2O2-induced cataract in cultured pig lens. Exp Eye Res. 1997 May; 64(5):693-700. doi: 10.1006/exer.1996.0251. PMID: 9245898.]. At the end of the 6-hour incubation, lenses were imaged under darkfield microscopy

The test system of another data set is human melanocytes. As to conditions: cited from earlier work.
In data set [1] the test system is healthy human skin explants. The following applies: healthy human skin explants exposed to UV-radiation; cited from earlier work.
For a further data set, the target named is tyrosinase (Homo sapiens, UniProt P14679). As to conditions: cited from earlier work.
Data set [2] deals with human retinal pigment epithelial cells. As to conditions: cited from earlier work.
The next data set has as its system mouse model of RP. The following applies: compared with NAC; cited from earlier work.
Data set [3] deals with sodium selenite-induced cataracts. The following applies: in vivo; cited from earlier work.
In data set [4] the test system is J-buthionine-(S,R)-induced cataracts. The following applies: in vivo; cited from earlier work.
Data set [5] has as its system rats with unilateral 6-OHDA-induced nigral lesion. As to conditions: cited from earlier work.
The test system of data set [6] is mice treated with 1-methyl-4-phenyl-1,2,3,6,-tetrahydropyridine. As to conditions: MPTP-treated mice; cited from earlier work.
The subject of data set [7] is rats given chronic intrajugular rotenone. As to conditions: chronic intrajugular rotenone in rats; cited from earlier work.
Another data set concerns CD-1 mice. The following applies: gp120+Tat+METH; cited from earlier work.
The subject of data set [8] is olfactory bulbectomized rats. As to conditions: cited from earlier work.
Data set [9] concerns blood cells from β-thalassemic patients. As to conditions: cited from earlier work.
The subject of another data set is β-thalassemic mice. The following applies: intra-peritoneal injection, 150 mg/kg; cited from earlier work.
Another data set deals with RBCs. The following applies: compared with NAC; cited from earlier work.
In data set [10] the target is glutamate cysteine ligase (GCL, EC 6.3.2.2). As to conditions: read-out: Ki, nonallosteric competitive inhibition of GCL; cited from earlier work.
Another data set concerns patients with presbyopia. As to conditions: first-in-human trial in presbyopes; cited from earlier work.
In the next data set the test system is human cadaver lenses. As to conditions: in vitro; cited from earlier work.
Another data set deals with rabbit eyes. As to conditions: in vivo; cited from earlier work.
Another data set relates to RP patients. As to conditions: oral high dose NAC, cited from earlier work.
The next data set deals with alcohol-preferring rats. The following applies: alcohol re-access after deprivation, 60 minutes; untreated 95 to 100 mg/dL; cited from earlier work.
For data set [11] the following is noted: humans, oral dose of 600 mg; cited from earlier work.
Data set [12] has as its system corneal endothelial cells. As to conditions: cell culture; cited from earlier work.
The next data set relates to mouse model. The following applies: cited from earlier work.
Data set [13] in a line: Topical ocular study in rabbit (NACA in aqueous humor, ocular tolerability). It is filed as in vivo, Dutch Belted rabbits. On the procedure: Example 2: Topical Ocular Study in Rabbit. An IACUC-approved study evaluated diNACA or NACA topical ocular dosing in rabbit. Ophthalmic formulations were developed containing either 1% diNACA or 1% NACA that were used for repeated topical ocular instillation to Dutch Belted rabbits. Animals were dosed four times a day at approximately 8:00 AM, 11 AM, 2 PM, and 4:00 PM on days 1-6, and once on Day 7 at approximately 8:00 AM, via bilateral topical administration. Ocular tolerability was assessed at baseline and prior to the first daily dose by means of scoring chemosis, discharge, and hyperemia (Draize scoring). Ocular tissue was harvested at necropsy (day 7). A qualified analytical LC-MS method was developed and used to quantitate NACA levels in aqueous humor (AH).

The nature of data set [14]: Oral dose study in rat (plasma levels). The data set is classed as in vivo, male Sprague-Dawley rats. As to conditions: oral gavage diNACA 200 milligrams per kilogram (FIG. 5). As to the method:
DiNACA as a Prodrug to NACA and NAC. Example 1: Oral Dose Study in Rat. An IACUC (Institutional Animal Care and Use Committee)-approved study evaluated diNACA dosed via oral gavage in male Sprague-Dawley rats. diNACA was weighed into individual tubes. The tubes were capped and stored at room temperature overnight. Rats were weighed. An appropriate amount of phosphate buffered saline pH 7.0 was added to each tube to achieve the desired diNACA concentration as a suspension. Blood specimens were collected from the tail vein at specified time points and processed to produce plasma. Plasma specimens were analyzed using a validated liquid chromatographic mass spectrometric procedure (King B; Vance J; Wall G M; Shoup R. Quantitation of free and total N-acetylcysteine amide and its metabolite N-acetylcysteine in human plasma using derivatization and electrospray LC-MS/MS. J Chrom B 2019; 1109:25-36.).

Data set [15] in a line: Intravitreal dose study in rabbit (diNACA implant). It is filed as in vivo, Female New Zealand White rabbits. As to the method: Example 3: Intravitreal Dose Study in Rabbit. An IACUC-approved study evaluated intravitreally (IVT) dosed diNACA in rabbit. A standard sterile intravitreal implant containing diNACA was prepared. Female New Zealand White rabbits were administered IVT with a di-NACA implant at a dose of 0.8 mg/eye. One group of animals received IVT placebo implants without any test article. Clinical ophthalmic examinations were performed at baseline and on Days 8 and 23 post-dose. General health observations were performed daily. Body weights were recorded at baseline and prior to termination. Animals were euthanized on Day 8, 15, or 23, and tissue was collected and submitted for bioanalysis. […] Observations of conjunctival bulging, discharge, and minimal hemorrhaging were determined to be related to the injection procedure and resolved in most eyes on the day after dosing.

Setting [16] is: vitreous humor (FIG. 6, FIG. 7).

Chain of tyrosinase (P14679 19-529, species assumed): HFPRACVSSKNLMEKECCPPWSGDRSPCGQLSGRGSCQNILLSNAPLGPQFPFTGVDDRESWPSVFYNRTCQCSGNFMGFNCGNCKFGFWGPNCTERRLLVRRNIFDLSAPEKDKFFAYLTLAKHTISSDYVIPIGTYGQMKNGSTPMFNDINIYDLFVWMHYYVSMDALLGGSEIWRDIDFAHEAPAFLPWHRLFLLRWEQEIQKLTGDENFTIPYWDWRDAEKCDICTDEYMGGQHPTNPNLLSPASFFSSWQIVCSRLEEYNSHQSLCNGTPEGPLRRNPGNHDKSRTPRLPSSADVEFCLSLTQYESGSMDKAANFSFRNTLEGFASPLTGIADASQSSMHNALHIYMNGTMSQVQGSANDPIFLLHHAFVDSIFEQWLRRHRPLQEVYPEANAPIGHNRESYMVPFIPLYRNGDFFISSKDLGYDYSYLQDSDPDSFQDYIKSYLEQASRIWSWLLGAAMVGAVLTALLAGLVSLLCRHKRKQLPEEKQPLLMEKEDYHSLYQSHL

As to `CC(=O)N[C@@H](CS)C(N)=O`, the “inhibition of oxidative formation of cataract (opacity)” value with isolated rat lens is on record as “inhibit oxidative formation of cataract (opacity)”. Moreover, in the data set on isolated porcine lenses, the “inhibition of H2O2-induced cataract” value is “dose-dependently inhibit H2O2-induced cataract” and the “efficacy against H2O2-induced cataract relative to NAC” value is reported as “greater efficacy than NAC”. Moreover, in the data set with human melanocytes, the melanin production result is on record as “inhibited melanin production”. Further, in data set [1], the “glutathione and NAC in skin” value is “increased glutathione and NAC”. At tyrosinase, the “inhibition of tyrosinase activity” value is on record as “significant inhibition of tyrosinase activity was observed in a dose responsive manner”. Besides, the “protection against oxidative stress-induced cellular injury and death” value in data set [2] was “protected against oxidative stress-induced cellular injury and death”. Moreover, the “improvement of visual parameters” value with mouse model of RP is “to a greater extent than NAC”. Also, the “inhibition of sodium selenite-induced cataracts” value in [3] was “inhibit”. In addition, the “inhibition of buthionine sulfoximine-induced cataracts” value in data set [4] is given as “inhibit”. Further, the amphetamine-induced rotational behaviour result in data set [5] is “suppressed amphetamine-induced rotational behaviour”. Also, the “reduction in striatal dopamine levels” value in data set [6] is given as “attenuated the reduction in striatal dopamine levels”. Also, in data set [7], the dopaminergic neuronal loss entry was “reduced dopaminergic neuronal loss”. In the data set with CD-1 mice, the “rescue from oxidative stress (GSH, MDA)” value is on record as “significantly rescued the animals from oxidative stress”. Further, in data set [8], the cocaine-seeking behavior entry is “blocked cocaine-seeking behavior”. In data set [9] (both in vitro and in vivo), the “reduction of oxidative stress markers in thalassemic cells relative to NAC” value is reported as “superior to NAC”. In addition, in [9] (in vitro treatment), the “reactive oxygen species (ROS) of blood cells” value was “reduced their reactive oxygen species (ROS)”; the “reduced GSH content of RBC, platelets and PMN leukocytes” value is recorded as “elevated the reduced GSH content”. For the same molecule, the “parameters of oxidative stress” value in the data set with β-thalassemic mice is reported as “significantly reduced the parameters of oxidative stress”. The “BuOOH-induced intracellular oxidation, thiol depletion and hemoglobin oxidation in RBCs” value in the data set with RBCs was “superior to NAC”.

Consider `N[C@@H](CCC(=O)N[C@@H](CS)C(=O)NCC(=O)O)C(=O)O` [GSH, c-L-glutamyl-L-cysteinyl-glycine], for which, in data set [10], the pKi is 2.64.

Regarding `C[N+](C)(C)CCOC(=O)CCCC[C@@H]1CCSS1` [LACE, lipoic acid choline ester], in the data set with patients with presbyopia, the “near visual acuity (DCNVA) improvement compared to placebo” value was “statistically significant”. In addition, the “lens softening and deformability” value in the data set on human cadaver lenses is “lens softening and an increase in lens deformability”; in the data set with rabbit eyes it was “lens softening and an increase in lens deformability”.

Take `CC(=O)NC(CS)C(=O)O` (stereo not drawn) [NAC, 2-acetamido-3-sulfanylpropanoic acid]: in the data set on isolated porcine lenses, the “inhibition of H2O2-induced cataract” value is recorded as “dose-dependently inhibit H2O2-induced cataract”. The “improvement of visual acuity” value in the data set with RP patients (RP patients (n=30), p<0.05) is listed as 2-5 letters. For the same molecule, the “aqueous humor concentrations of NAC” value in the data set with RP patients (RP patients) was “increased aqueous humor concentrations of NAC”. Further, the “reduction of relapse-drinking blood alcohol levels” value in the data set with alcohol-preferring rats is recorded as 60%. In addition, in data set [11], the plasma half-life is 2.5 h and the “time after administration at which no NAC is detectable” value is 10 to 12 h. Further, the corneal endothelial survival result in data set [12] is “increased corneal endothelial survival”. In addition, the corneal endothelial survival result in the data set on mouse model was “increased corneal endothelial survival”.

Turning to `CC(=O)Oc1ccccc1C(=O)O` [aspirin], the “reduction of relapse-drinking blood alcohol levels” value in the data set with alcohol-preferring rats is 60%.

For the molecule `CC(=O)NC(CSSCC(NC(C)=O)C(N)=O)C(N)=O` [diNACA, (2R,2R′)-3,3′-disulfanediyl bis(2-acetamidopropanamide)], the “penetration into the eye (aqueous humor)” value in data set [13] (topical ocular dosing) was “penetrates the eye”. Further, the “prodrug delivery of NACA to aqueous humor” value in [13] (topical ocular dosing of 1% diNACA) is “served as a prodrug to deliver NACA to the AH”. In addition, the “inhibition of oxidative formation of cataract (opacity)” value in the data set with isolated rat lens was “inhibit oxidative formation of cataract (opacity)”. Further, in the data set with isolated porcine lenses, the “inhibition of H2O2-induced cataract” value was “dose-dependently inhibit H2O2-induced cataract” and the “efficacy against H2O2-induced cataract relative to NAC” value is “greater efficacy than NAC”. Moreover, in data set [14], the “bioavailability after oral administration” value is listed as “bioavailable”; the “levels in rat plasma after oral diNACA” value was “significant levels of diNACA, NACA and NAC”. Further, in [15] (IVT implant 0.8 mg/eye), the “effects on general, non-ocular health or on body weights” value is given as “No serious adverse effects” and the “ocular findings on the day of dosing” value is “minimal ocular findings”. For the same molecule, the “tolerability of IVT delivery” value in data set [15] (IVT implant 0.8 mg/eye, up to Day 23) is on record as “generally well tolerated”. Also, in data set [15] (setting [16]), the “elution into vitreous humor from IVT implant” value is given as “eluted into the VH”; the “metabolites in vitreous humor after diNACA IVT implant” value was “presence of NACA and significant concentrations of NAC in the VH”. Also, the melanin production result in the data set on human melanocytes is “inhibited melanin production”. Further, the “glutathione and NAC in skin” value in data set [1] is “increased glutathione and NAC”. Besides, the “inhibition of tyrosinase activity” value at tyrosinase was “significant inhibition of tyrosinase activity was observed in a dose responsive manner”.
